Data taken from EP4818156A1, “SQUARIC ACID COMPOUND, PHARMACEUTICALLY ACCEPTABLE SALT OR DEUTERATED COMPOUND THEREOF, PREPARATION METHOD THEREFOR AND USE THEREOF” (Shanghai Institute of Materia Medica, Chinese Academy of …, priority 2023, dated 2025).

Experiment: Photostability under continuous 808 nm laser irradiation
Type: physicochemical
Conditions: aqueous solution, 808 nm laser at 108 mW/cm^2, 20 minutes
Procedure: Indocyanine green (ICG), an FDA-approved near-infrared dye widely used clinically, was used as a control to evaluate the photostability of compound Ia (SQ 905). ICG was dissolved in water, and compound Ia (SQ 905) was dissolved in methanol. Over a period of 25 minutes, the methanol solution of compound Ia and the aqueous solution of ICG were continuously irradiated with an 808 nm laser at 108 mW/cm^2. During this period, the fluorescence intensity was recorded using a near-infrared II camera (MARS, Artemis Intelligent Imaging, Shanghai, China). Images were recorded every minute for the first 15 minutes, and every 5 minutes thereafter to monitor the fluorescence intensity. The fluorescence intensity of the region of interest (ROI) in the captured images was quantified using ImageJ software and compared with the initial fluorescence intensity to obtain the ratio of fluorescence intensity at each time point relative to the initial intensity. The photostability curve of compound Ia was plotted using GraphPad Prism 8.0.2 software.
Accordingly, the photostability of compound Ia was evaluated in this example. The methanol solution of compound Ia and the aqueous solution of ICG were used for photostability testing.

SMILES: CC1(C)C(/C=C/C=C/C=C/C=C2\N(CCCCS(=O)(=O)O)c3ccc4ccccc4c3C2(C)C)=[N+](CCCCS(=O)(=O)[O-])c2ccc3ccccc3c21 [ICG, Indocyanine green]
- decrease of fluorescence intensity after continuous irradiation: 83%
